Test results reported in patent publication US11504414B2, “Bacterial inhibitors” (priority 2016, dated 2022).
Where no end group is shown, it is not given here.

B1: C-terminal domain: C-terminal domain of S. cristatus arginine deiminase, 208 amino acid portion (protein, listed as Streptococcus cristatus)
chain: VYNREEDTRIEGGDELVLSKDVLAVGISQRTDAASIEKLLVNIFKKNVGFKKVLAFEFANNRKFMHLDTVFTMVDYDKFTIHPEIEGDLRVYSVTYENEKLKIVEEKGDLAELLAQNLGVEKVHLIRCGGGNIVAAGREQWNDGSNTLTIAPGVVVVYDRNTVTNKILEEYGLRLIKIRGSELVRGRGGPRCMSMPFEREEV

Experiments:
P. gingivalis 33277 [1] = assay type: cell-based, Porphyromonas gingivalis; conditions: for inhibitory activity on virulence gene expression: lower efficiency than peptide4; for Relative expression level fmA / Relative expression level kgp / Relative expression level mfa1 / Relative expression level pgn0128 / Relative expression level rgpA / Relative expression level rgpA/B: peptide 16 μM in TSB; for Relative expression level fmA: mRNA by real-time PCR relative to absence of peptides = 1 unit, mean of three experiments; for Relative expression level kgp / Relative expression level mfa1 / Relative expression level pgn0128 / Relative expression level rgpA / Relative expression level rgpA/B: mRNA relative to absence of peptides = 1 unit
Description: The half inhibitory concentration (IC50) was measured by conducting three independent experiments to determine mRNA levels of fimA, mfa1, rgpA/B, and kgp in the presence of peptide4 at the concentrations 0, 4, 16, and 64 μM, respectively. The IC50 for each gene was established using a Microsoft Excel program with add-in for curve fitting. Asterisks indicate the statistical significances of IC50 of peptide4 for a specific gene when compared to that for the fimA gene (P<0.05; t test).
RNA isolation and qPCR. P. gingivalis were homogenized in Trizol Reagent (Invitrogen, Carlsbad, Calif.) and RNA was purified using an RNeasy mini spin column (Qiagen, Valencia, Calif.). RNA samples were digested on-column with RNase-free DNase, and total RNA was tested using an Agilent 2100 Bioanalyzer to ensure the quality of the samples. Amplification reactions consisted of a reverse transcription using a Bio-Rad iScript Reverse Transcription Supermix on a TC-3000 thermal cycler (Techne, Staffordshire, ST15 OSA, UK) and a real-time qRT-PCR analysis using a QuantiTect SYBR Green RT-PCR Kit (Qiagen) on an iCycler MyiQ™ Real-Time PCR detection system (Bio-Rad Laboratories, Inc, Hercules, Calif.) according to the manufacturer's instructions. P. gingivalis 16 S rRNA gene was used as a normalizing gene. The melting curve profile was analyzed to verify a single peak for each sample, which indicated primer specificity. The expression levels of the investigated genes for the test sample were determined relative to the untreated calibrator sample by using the comparative cycle threshold (ΔCT) method. ΔCT was calculated by subtracting the average CT value of the test sample from the average CT value of the calibrator sample, and the value used to calculate the ratio between the two by assuming 100% amplification efficiency.
Peptide synthesis and activity. Peptides were synthesized by PEPperPRINT and Biomatik (Delaware) and purified with High Performance Liquid Chromatography (HPLC) at 90% purity. Peptides were resuspended in nuclease/proteinase-free PBS, aliquoted, and stored at −20° C. Inhibitory activity of peptides were determined as described (Hajishengallis, G., Darveau, R. P. & Curtis, M. A. The keystone-pathogen hypothesis. Nature reviews. Microbiology 10, 717-725, doi:10.1038/nrmicro2873 (2012)) with slight modification. Peptides were mixed with 5×10^5 cells of P. gingivalis, spotted onto a TSB blood agar plate, and cultured for 60 h anaerobically. The expression levels of fimbrial and gingipain mRNA or proteins were measured using qRT-PCR or western blot analyses.
P. gingivalis 33277 was grown TSB in the presence or absence of peptide at a concentration 16 μM. Transcript levels were measured by real-time PCR. The mRNA levels of genes are indicated relative to the expression level in the absence of peptides as 1 unit. Results shown are means and standard deviations from three independent experiments. Asterisks indicate the statistical significance of expression levels at least two fold in P. gingivalis grown in TSB with/without peptides (P<0.05; t test).

[2] = system: surface extracts of P. gingivalis 33277; assay: ArcA peptide microarray binding of surface extracts; set-up: species or system Porphyromonas gingivalis; conditions: portions of ArcA
Description: The five highest peaks are numbered.
Protein Interaction Screening. Surface extracts of P. gingivalis were collected by sonication (1 min for three times) and centrifugation (13000 g for 30 min) followed by filtration (0.2 μm pore size). Peptide microarray analysis was performed by PEPperPRINT (Heidelberg, Germany). An ArcA microarray was generated with 409 different peptides of ArcA, and each peptide contained 15 amino acids with a peptide-peptide overlap of 14 amino acids. After blocking and washing, the array was incubated with surface extracts (100 μg/ml) isolated from P. gingivalis 33277, the 0806 mutant, or the ragB mutant. P. gingivalis surface proteins bound on the ArcA array were detected using anti-P. gingivalis antibodies and sheep anti-rabbit IgG (H+L) DyLight680. The arrays were analyzed with a LI-COR Odyssey Imaging System.

[3] = buffer (PBS) and TBS (growth medium of P. gingivalis)
[4] = P4 stability in H2O and PBS (LC-MS/MS); assay type: physicochemical
Description: Non-proteinogenic amino acids may improve peptide stability.
(§1) To determine P4 stability in solution, P4 was incubated in H2O, PBS, and whole saliva at 37° C. for 24 h. P4 in each sample was compared using LC-MS/MS analysis. Briefly, 2 μM P4 was injected on C18 nano-clumn and run with 5-20% of 0.1% FA in acetonitrile for 30 min. MS spectra were acquired in a positive mode on Orbitrap LTQ XL (Thermo).

[5] = P4 stability in whole saliva (LC-MS/MS); assay type: in vitro ADME
[6] = P4 stability in whole saliva (LC-MS/MS); assay type: in vitro ADME; remark: listed apart in the source
Description: as §1

HOKs [7] = assay: LDH cytotoxicity assay; assay type: cell-based, human; conditions: P4 as high as 200 μM, 48 h
Description: (§2) To examine the cytotoxic effects of P4, plasma membrane damage of HOKs was determined by the Pierce LDH Cytotoxicity Assay Kit. HOKs were seeded into a 6-well plate at a density of 1×10^5/well and cultured in Oral Keratinocyte Medium supplemented with antibiotics (100 U/mL penicillin and 100 μg/mL streptomycin) and 10% fetal calf serum at 37° C. in a humidified chamber with 5% CO2 for 24 h. The cells were then incubated with the growth medium supplemented with P4 (50 or 200 μM) for 48 h. The growth medium was collected for an LDH cytotoxicity assay according to the manufacturer's instructions (Thermo Scientific). To measure the effect of P4 on HOK apoptosis, HOKs were harvested and stained with Annexin V-FITC Apoptosis Kit (Invitrogen), which is able to stain both apoptotic cells and dead cells. Flow cytometric analysis was performed to quantitate apoptotic cells and dead cells (annexin V+/PI+).

HOKs [8] = assay: Annexin V-FITC apoptosis assay (flow cytometry); assay type: cell-based, human; conditions: P4 as high as 200 μM, 48 h
Description: as §2

[9] = system: P. gingivalis RagB (PGN_0294) and MotA/ToIQ/ExbB proton channel family protein (PGN_0806); assay: Pull-down assay of ArcA-interacting surface proteins; assay type: binding, Porphyromonas gingivalis; conditions: MS identification
Description: Pull-down assays. To isolate and identify P. gingivalis surface molecule(s) that interacts with ArcA, we performed a pull-down assay. Surface extracts of P. gingivalis were prepared by sonication with a Sonic Dismembrator (Fisher Scientific; output control 8, 20 s×3), and the cell debris were removed by centrifugation followed by filtration (0.2-μm pore size). Surface extracts of 33277 were mixed with purified ArcA on a rotator at room temperature for 1 h, and then added to an ArcA antibody coupled Sepharose 4B column (Sigma-Aldrich). After incubation at room temperature for 1 h, the column was washed three times with PBS containing 0.01% Tween, and proteins were eluted by 0.1 M Glycine pH 2.4. After SDS-PAGE, bands were excised and identified by liquid chromatography-mass spectrometry.

P. gingivalis 33277 [10] = assay: Immunofluorescence/confocal assay of ArcA binding to bacteria; set-up: species or system Porphyromonas gingivalis; conditions: purified ArcA 50 μg, 10^8 cells
Description: The upper panel presents differential interference contrast (DIC) images showing the location of the bacteria. The red images in the lower panel are the TRITC fluorescence labeling images representing S. cristatus ArcA bound to P. gingivalis 33277 or A. actinomycetemcomitans Y4 that are positively labeled by ArcA specific antibody.
Confocal microscopy. ArcA (50 μg) was purified from S. cristatus CC5A as described (Teles R, Teles F, Frias-Lopez J, Paster B, Haffajee A. 2013. Lessons learned and unlearned in periodontal microbiology. Periodontal 2000 62: 95-162), mixed with P. gingivalis cells (10^8) in PBS and incubated at room temperature for 1 h. After washing three times with PBS, bacteria-protein complexes were blocked in PBS with 5% BSA for 1 h. ArcA bound to P. gingivalis was detected by staining with rabbit anti-ArcA polyclonal antibody (1:400) and tetramethyl rhodamine isothiocyanate (TRITC, 1:500)-conjugated AffiniPure Goat Anti-Rabbit IgG antibody. Visualization was with a LSM 510 inverted confocal microscope with selected filters (543 nm excitation and 560 nm emission).

P. gingivalis = assay: Effect of ArcA domains on fimA expression; assay type: cell-based, Porphyromonas gingivalis; conditions: domain of ArcA as a whole
[11] = Arginine deiminase activity of ArcA domain; assay type: biochemical

Row | Molecule | inhibitory activity on virulence gene expression (P. gingivalis 33277 [1]) | Relative expression level fmA (P. gingivalis 33277 [1]) | Relative expression level kgp (P. gingivalis 33277 [1]) | Relative expression level mfa1 (P. gingivalis 33277 [1]) | Relative expression level pgn0128 (P. gingivalis 33277 [1]) | Relative expression level rgpA (P. gingivalis 33277 [1]) | Relative expression level rgpA/B (P. gingivalis 33277 [1]) | binding to P. gingivalis surface proteins [2] | other results
1 | ELVRGRGGPRCMSMPF (listed as Streptococcus cristatus) [P5, ArcA-derived peptide from residue 389, C-terminal domain] | some inhibitory activity | 0.97 | 0.96 | 0.83 | 0.91 | 0.73 | 0.72 | demonstrated to bind | 
2 | IRGRETKK (listed as Streptococcus cristatus) [P1, ArcA-derived peptide from residue 97, N-terminal domain] | some inhibitory activity | 0.88 | 1.06 | 0.85 | 0.96 | 0.86 | 0.89 | demonstrated to bind | 
3 | NHMFADTRNRE (listed as Streptococcus cristatus) [P2, ArcA-derived peptide from residue 177, N-terminal domain] | some inhibitory activity | 0.80 | 0.90 | 0.80 | 0.88 | 0.81 | 0.78 | demonstrated to bind | 
4 | NIFKKNVGFKK [P4, NIFKKNVGFKK] |  |  |  |  |  |  |  |  | solubility [3]: can be dissolved; stability at 37° C. ([4]; 37° C. for 24 h, initial study): stable; stability in H2O and PBS ([4]; 24 h incubation, 37° C.): not affected; Signal Intensity of 331.45 m/z peak ([5]; Saliva, 48 hour, 37° C.): 6.0 × 10^3 ± 4.1 × 10^2; signal in diluted whole saliva ([5]; after 48 h): completely diP4eared; time P4 can maintain in saliva at certain level ([6]; 37° C.): at least 24 h; signal in diluted whole saliva ([6]; PBS:saliva 1:1, 0, 0.5, 1, 2, 4 and 24 h): gradual reduction; Signal Intensity of 331.45 m/z peak ([6]; Saliva (PBS:saliva 1:1), 0 hour): 3.9 × 10^6 ± 3.1 × 10^5; Signal Intensity of 331.45 m/z peak ([6]; Saliva, 0.5 hour, 37° C.): 3.6 × 10^6 ± 4.0 × 10^5; Signal Intensity of 331.45 m/z peak ([6]; Saliva, 1 hour, 37° C.): 2.4 × 10^6 ± 2.2 × 10^5; Signal Intensity of 331.45 m/z peak ([6]; Saliva, 2 hour, 37° C.): 1.7 × 10^6 ± 4.2 × 10^5; Signal Intensity of 331.45 m/z peak ([6]; Saliva, 4 hour, 37° C.): 8.8 × 10^5 ± 2.7 × 10^4; Signal Intensity of 331.45 m/z peak ([6]; Saliva, 24 hour, 37° C.): 4.2 × 10^5 ± 3.9 × 10^4; cell membrane damage of HOKs (LDH) (HOKs [7]): did not induce; apoptosis of HOKs (annexin V/PI) (HOKs [8]): did not induce
5 | VYNREEDTRIEGGDEL (listed as Streptococcus cristatus) [P3, ArcA-derived peptide from residue 208, C-terminal domain] | some inhibitory activity | 0.87 | 0.99 | 0.82 | 0.91 | 0.84 | 0.98 | demonstrated to bind | 
6 | arginine deiminase [ArcA] |  |  |  |  |  |  |  |  | interaction with P. gingivalis surface proteins PGN_0294 and PGN_0806 [9]: found to interact; affinity of ArcA for bacterial cells (P. gingivalis 33277 [10]): high affinity
7 | B1 |  |  |  |  |  |  |  |  | effect on fimA expression of P. gingivalis (P. gingivalis): observed to affect; deiminase activity [11]: does not have any deiminase activity
